Assay results as given in patent US20090318431A1, “BENZOXAZINONE AND BENZOXAZEPINONE OXAZOLIDINONES AS ANTIBACTERIAL AGENTS” (Pfizer Inc., priority 2006, published 2009).
Values after ≈ are worked out from the molar mass of the structure shown.

Legend:
Type in all cases: cell-based
S. pneumoniae SV1 SP-3 = experiment: in vitro antibacterial activity (MIC), S. pneumoniae; conditions: Streptococcus pneumoniae, SV1SP3, strain SV1 SP-3, lowest concentration preventing macroscopically visible growth
Excerpt: (§1) The in vitro antibacterial activity of the compounds of the present invention may be assessed by following procedures recommended in (1) National Committee for Clinical Laboratory Standards (January 2003), Methods for dilution antimicrobial tests for bacteria that grow aerobically, Approved Standard (6th ed), M7-A6, NCCLS, Wayne, Pa.; (2) National Committee for Clinical Laboratory Standards (March 2001), Methods for antimicrobial susceptibility testing of anaerobic bacteria, Approved Standard (5th ed), M11-A4, NCCLS, Wayne, Pa.; (3) National Committee for Clinical Laboratory Standards (Jan. 2003), MIC testing supplemental tables, M100-S13 (for use with M7-A6), NCCLS, Wayne, Pa.; and (4) Murray P R, Baron E J, Jorgensen J H, et al. Manual of Clinical Microbiology (8th ed) Washington, D.C.: American Society for Microbiology Press, 2003. The antibacterial activity can be presented in the form of MIC value. The MIC value is the lowest concentration of drug, which prevented macroscopically visible growth under the conditions of the test.

E. faecalis MGH-2 EF 1-1 = experiment: in vitro antibacterial activity (MIC), E. faecalis; conditions: Enterococcus faecalis, MGH2EF11, strain MGH-2 EF 1-1, lowest concentration preventing macroscopically visible growth
Excerpt: as §1

S. aureus UC-76 SA-1 = experiment: in vitro antibacterial activity (MIC), S. aureus; conditions: Staphylococcus aureus, UC76, strain UC-76 SA-1, lowest concentration preventing macroscopically visible growth
Excerpt: as §1

Compound | MIC (S. pneumoniae SV1 SP-3) [µg/mL] | MIC (E. faecalis MGH-2 EF 1-1) [µg/mL] | MIC (S. aureus UC-76 SA-1) [µg/mL]
CC(=O)NC[C@H]1CN(c2ccc3c(c2)COC(=O)N3C)C(=O)O1 [Example 1, (S)—N-((3-(1-methyl-2-oxo-2,4-dihydro-1H-benzo[d][1,3]oxazin-6-yl)-2-oxooxazolidin-5-yl)methyl)acetamide] | 2 (≈ 6.26 µM) | 4 (≈ 12.5 µM) | 4 (≈ 12.5 µM)
CCC(=O)NC[C@H]1CN(c2ccc3c(c2)COC(=O)N3C)C(=O)O1 [Example 2, (S)—N-((3-(1-methyl-2-oxo-2,4-dihydro-1H-benzo[d][1,3]oxazin-6-yl)-2-oxooxazolidin-5-yl)methyl)propionamide] | 4 (≈ 12 µM) | 8 (≈ 24 µM) | 8 (≈ 24 µM)
COC(=O)NC[C@H]1CN(c2ccc3c(c2)COC(=O)N3C)C(=O)O1 [Example 3, (S)-methyl (3-(1-methyl-2-oxo-2,4-dihydro-1H-benzo[d][1,3]oxazin-6-yl)-2-oxooxazolidin-5-yl)methylcarbamate] | 4 (≈ 11.9 µM) | 4 (≈ 11.9 µM) | 4 (≈ 11.9 µM)
CN1C(=O)OCc2cc(N3C[C@H](C(N)=O)OC3=O)ccc21 [Example 4, (R)-3-(1-methyl-2-oxo-2,4-dihydro-1H-benzo[d][1,3]oxazin-6-yl)-2-oxooxazolidine-5-carboxamide] | 4 (≈ 13.7 µM) | 16 (≈ 54.9 µM) | 4 (≈ 13.7 µM)
CNC(=O)[C@H]1CN(c2ccc3c(c2)COC(=O)N3C)C(=O)O1 [Example 5, (R)—N-methyl-3-(1-methyl-2-oxo-2,4-dihydro-1H-benzo[d][1,3]oxazin-6-yl)-2-oxooxazolidine-5-carboxamide] | 4 (≈ 13.1 µM) | 16 (≈ 52.4 µM) | 4 (≈ 13.1 µM)
CN1C(=O)OCc2cc(N3C[C@H](CNC(=O)OCF)OC3=O)ccc21 [Example 6, (S)-Fluoromethyl (3-(1-methyl-2-oxo-2,4-dihydro-1H-benzo[d][1,3]oxazin-6-yl)-2-oxooxazolidin-5-yl)methylcarbamate] | 2 (≈ 5.66 µM) | 8 (≈ 22.6 µM) | 8 (≈ 22.6 µM)
CN1C(=O)OCc2cc(N3C[C@H](Cn4ccnn4)OC3=O)ccc21 [Example 7, (R)-6-(5-((1H-1,2,3-triazol-1-yl)methyl)-2-oxooxazolidin-3-yl)-1-methyl-1H-benzo[d][1,3]oxazin-2(4H)-one] | 16 (≈ 48.6 µM) | 32 (≈ 97.2 µM) | 16 (≈ 48.6 µM)
CN1C(=O)OCc2cc(N3C[C@H](C(N)=O)OC3=O)cc(F)c21 [Example 8, (R)-3-(8-fluoro-1-methyl-2-oxo-2,4-dihydro-1H-benzo[d][1,3]oxazin-6-yl)-2-oxooxazolidine-5-carboxamide] | 16 (≈ 51.7 µM) | 8 (≈ 25.9 µM) | 8 (≈ 25.9 µM)
CNC(=O)[C@H]1CN(c2cc(F)c3c(c2)COC(=O)N3C)C(=O)O1 [Example 9, (R)-3-(8-fluoro-1-methyl-2-oxo-2,4-dihydro-1H-benzo[d][1,3]oxazin-6-yl)-N-methyl-2-oxooxazolidine-5-carboxamide] | 8 (≈ 24.7 µM) | 8 (≈ 24.7 µM) | 8 (≈ 24.7 µM)
CC(=O)NC[C@H]1CN(c2cc(F)c3c(c2)COC(=O)N3C)C(=O)O1 [Example 10, (S)—N-((3-(8-fluoro-1-methyl-2-oxo-2,4-dihydro-1H-benzo[d][1,3]oxazin-6-yl)-2-oxooxazolidin-5-yl)methyl)acetamide] | 2 (≈ 5.93 µM) | 4 (≈ 11.9 µM) | 2 (≈ 5.93 µM)
CCC(=O)NC[C@H]1CN(c2cc(F)c3c(c2)COC(=O)N3C)C(=O)O1 [Example 11, (S)—N-((3-(8-fluoro-1-methyl-2-oxo-2,4-dihydro-1H-benzo[d][1,3]oxazin-6-yl)-2-oxooxazolidin-5-yl)methyl)propionamide] | 4 (≈ 11.4 µM) | 4 (≈ 11.4 µM) | 4 (≈ 11.4 µM)
COC(=O)NC[C@H]1CN(c2cc(F)c3c(c2)COC(=O)N3C)C(=O)O1 [Example 12, (S)-methyl (3-(8-fluoro-1-methyl-2-oxo-2,4-dihydro-1H-benzo[d][1,3]oxazin-6-yl)-2-oxooxazolidin-5-yl)methylcarbamate] | 4 (≈ 11.3 µM) | 8 (≈ 22.6 µM) | 4 (≈ 11.3 µM)
CC(=O)NC[C@H]1CN(c2cc(F)c3c(c2)CCOC(=O)N3C)C(=O)O1 [Example 15, N-{[(SS)-3-(9-fluoro-1-methyl-2-oxo-1,2,4,5-tetrahydro-3,1-benzoxazepin-7-yl)-2-oxo-1,3-oxazolidin-5-yl]methyl}acetamide] | 4 (≈ 11.4 µM) | 8 (≈ 22.8 µM) | 8 (≈ 22.8 µM)
CCC(=O)NC[C@H]1CN(c2cc(F)c3c(c2)CCOC(=O)N3C)C(=O)O1 [Example 16, N-{[(5S)-3-(9-fluoro-1-methyl-2-oxo-1,2,4,5-tetrahydro-3,1-benzoxazepin-7-yl)-2-oxo-1,3-oxazolidin-5-yl]methyl}propanamide] | 8 (≈ 21.9 µM) | 16 (≈ 43.8 µM) | 16 (≈ 43.8 µM)
COC(=O)NC[C@H]1CN(c2cc(F)c3c(c2)CCOC(=O)N3C)C(=O)O1 [Example 17, methyl [(5S)-3-(9-fluoro-1-methyl-2-oxo-1,2,4,5-tetrahydro-3,1-benzoxazepin-7-yl)-2-oxo-1,3-oxazolidin-5-yl]methylcarbamate] | 8 (≈ 21.8 µM) | 16 (≈ 43.6 µM) | 16 (≈ 43.6 µM)
CN1C(=O)OCCc2cc(N3C[C@H](C(N)=O)OC3=O)ccc21 [Example 18, (5R)-3-(1-methyl-2-oxo-1,2,4,5-tetrahydro-3,1-benzoxazepin-7-yl)-2-oxo-1,3-oxazolidine-5-carboxamide] | 32 (≈ 105 µM) | 32 (≈ 105 µM) | 16 (≈ 52.4 µM)
CNC(=O)[C@H]1CN(c2ccc3c(c2)CCOC(=O)N3C)C(=O)O1 [Example 19, (5R)—N-methyl-3-(1-methyl-2-oxo-1,2,4,5-tetrahydro-3,1-benzoxazepin-7-yl)-2-oxo-1,3-oxazolidine-5-carboxamide] | 32 (≈ 100 µM) | 32 (≈ 100 µM) | 16 (≈ 50.1 µM)
CC(=O)NC[C@H]1CN(c2ccc3c(c2)CCOC(=O)N3C)C(=O)O1 [Example 20, N-{[(5S)-3-(1-methyl-2-oxo-1,2,4,5-tetrahydro-3,1-benzoxazepin-7-yl)-2-oxo-1,3-oxazolidin-5-yl]methyl}acetamide] | 4 (≈ 12 µM) | 8 (≈ 24 µM) | 8 (≈ 24 µM)
CCC(=O)NC[C@H]1CN(c2ccc3c(c2)CCOC(=O)N3C)C(=O)O1 [Example 21, N-{[(5S)-3-(1-methyl-2-oxo-1,2,4,5-tetrahydro-3,1-benzoxazepin-7-yl)-2-oxo-1,3-oxazolidin-5-yl]methyl}propanamide] | 8 (≈ 23 µM) | 8 (≈ 23 µM) | 8 (≈ 23 µM)
COC(=O)NC[C@H]1CN(c2ccc3c(c2)CCOC(=O)N3C)C(=O)O1 [Example 22, methyl [(5S)-3-(1-methyl-2-oxo-1,2,4,5-tetrahydro-3,1-benzoxazepin-7-yl)-2-oxo-1,3-oxazolidin-5-yl]methylcarbamate] | 8 (≈ 22.9 µM) | 8 (≈ 22.9 µM) | 8 (≈ 22.9 µM)
